Values after ≈ are worked out from the molar mass of the structure shown.
Legend:
Experiment in all cases: ≥ marks a high value that may be exact or a test limit, other limits are often not marked, values filed in µg/mL are converted to µM
[1] = test system: Escherichia coli ATCC 25922
[2] = test system: Staphylococcus aureus ATCC 25923
Escherichia coli = test system: Escherichia coli
Pseudomonas aeruginosa = test system: Pseudomonas aeruginosa
Staphylococcus aureus = test system: Staphylococcus aureus
[3] = test system: Pseudomonas aeruginosa ATCC 27853

Row | Compound | MIC [1] [µM] | MIC (Escherichia coli) [µM] | MIC (Pseudomonas aeruginosa) [µM] | further results
1 | CC[C@H](C)[C@H](NC(=O)[C@H](CCCN=C(N)N)NC(=O)[C@H](CCCCN)NC(=O)[C@H](CC(C)C)NC(=O)[C@H](CC(C)C)NC(=O)CN)C(=O)N[C@@H](C)C(=O)N[C@H](C(=O)N[C@@H](CC(C)C)C(=O)N[C@@H](CC(C)C)C(N)=O)[C@@H](C)O [GLLKRIATLL] | 10 (≈ 11 µg/mL) |  |  | MIC [2]: 10 µM (≈ 11 µg/mL)
2 | CC[C@H](C)[C@H](NC(=O)CN)C(=O)N[C@@H](CCSC)C(=O)N[C@@H](CC(=O)O)C(=O)N[C@H](C(=O)N[C@H](C(=O)N[C@@H](CCCCN)C(=O)N[C@@H](CC(N)=O)C(=O)N[C@H](C(=O)N[C@@H](C)C(=O)N[C@@H](CCCCN)C(=O)N[C@@H](CC(N)=O)C(=O)N[C@@H](CC(C)C)C(=O)N[C@@H](C)C(=O)NCC(=O)N[C@@H](CCC(N)=O)C(=O)N[C@@H](CC(C)C)C(=O)N[C@@H](CC(C)C)C(=O)N[C@@H](CC(=O)O)C(=O)N[C@@H](CCCCN)C(=O)N[C@@H](CC(C)C)C(=O)N[C@@H](CCCCN)C(=O)N[C@H]1CSSC[C@@H](C(=O)O)NC(=O)[C@H](C)NC(=O)[C@H]([C@@H](C)O)NC(=O)[C@H]([C@@H](C)CC)NC(=O)[C@H](CCCCN)NC1=O)C(C)C)C(C)C)[C@@H](C)O [GIMDTVKNVAKNLAGQLLDKLKCKITAC] | 25 (≈ 74.7 µg/mL) |  |  | 
3 | CC[C@H](C)[C@H](NC(=O)[C@H](C)NC(=O)CNC(=O)[C@@H](NC(=O)[C@H](CCCCN)NC(=O)[C@H](CCCCN)NC(=O)[C@@H](NC(=O)[C@H](C)NC(=O)CNC(=O)[C@H](Cc1c[nH]c2ccccc12)NC(=O)[C@H](CCCCN)NC(=O)[C@H](CCCCN)NC(=O)[C@@H](NC(=O)[C@H](C)NC(=O)CNC(=O)[C@@H](NC(=O)[C@@H](N)CCCCN)[C@@H](C)CC)[C@@H](C)CC)[C@@H](C)CC)[C@@H](C)CC)C(=O)N[C@@H](CCCCN)C(N)=O [KIGAIKKWGAIKKIGAIK] |  | > 133 | > 133 | MIC (Staphylococcus aureus): > 133 µM
4 | CC[C@H](C)[C@H](NC(=O)[C@H](CCSC)NC(=O)[C@@H](NC(=O)[C@H](CCC(=O)O)NC(=O)CNC(=O)[C@H](CC(C)C)NC(=O)[C@H](Cc1ccccc1)NC(=O)[C@H](C)NC(=O)[C@H](CCCCN)NC(=O)CNC(=O)[C@H](Cc1ccccc1)NC(=O)[C@H](CCCCN)NC(=O)CNC(=O)[C@H](C)NC(=O)[C@H](CO)NC(=O)[C@H](Cc1cnc[nH]1)NC(=O)[C@H](CC(C)C)NC(=O)[C@H](Cc1ccccc1)NC(=O)[C@H](CCCCN)NC(=O)CN)C(C)C)C(=O)NCC(=O)O [GKFLHSAGKFGKAFLGEVMIG] | > 100 |  |  | MIC [2]: > 100 µM
5 | CC[C@H](C)[C@H](NC(=O)CN)C(=O)NCC(=O)N[C@@H](CCCCN)C(=O)N[C@@H](Cc1ccccc1)C(=O)N[C@@H](CC(C)C)C(=O)N[C@@H](Cc1cnc[nH]1)C(=O)N[C@@H](CO)C(=O)N[C@@H](C)C(=O)N[C@@H](CCCCN)C(=O)N[C@@H](CCCCN)C(=O)N[C@@H](Cc1ccccc1)C(=O)NCC(=O)N[C@@H](CCCCN)C(=O)N[C@@H](C)C(=O)N[C@@H](Cc1ccccc1)C(=O)N[C@H](C(=O)NCC(=O)N[C@@H](CCC(=O)O)C(=O)N[C@H](C(=O)N[C@@H](CCSC)C(=O)N[C@@H](CC(N)=O)C(=O)N[C@@H](CO)C(=O)NCC(=O)NCC(=O)N[C@@H](CO)C(N)=O)[C@@H](C)CC)C(C)C [GIGKFLHSAKKFGKAFVGEIMNSGGS] | 2.23 (≈ 5.94 µg/mL) |  |  | 
6 | CC[C@H](C)[C@H](NC(=O)CN)C(=O)NCC(=O)N[C@@H](CCCCN)C(=O)N[C@@H](Cc1ccccc1)C(=O)N[C@H](C(=O)N[C@@H](Cc1cnc[nH]1)C(=O)N[C@@H](CO)C(=O)N[C@@H](C)C(=O)N[C@@H](CCCCN)C(=O)N[C@@H](CCCN=C(N)N)C(=O)N[C@@H](Cc1ccccc1)C(=O)NCC(=O)N[C@@H](CCCN=C(N)N)C(=O)N[C@@H](C)C(=O)N[C@@H](Cc1c[nH]c2ccccc12)C(=O)N[C@H](C(=O)NCC(=O)N[C@@H](CCC(=O)O)C(=O)N[C@H](C(=O)N[C@@H](CCSC)C(=O)N[C@@H](CC(N)=O)C(=O)N[C@@H](CO)C(N)=O)[C@@H](C)CC)C(C)C)[C@@H](C)CC [GIGKFIHSAKRFGRAWVGEIMNS] |  | 37.5 (≈ 96 µg/mL) | 75 (≈ 192 µg/mL) | MIC (Staphylococcus aureus): > 75 µM
7 | CC[C@H](C)[C@H](NC(=O)[C@H](CCCN=C(N)N)NC(=O)[C@H](Cc1c[nH]c2ccccc12)NC(=O)[C@@H](N)Cc1ccccc1)C(=O)N[C@@H](CCCN=C(N)N)C(=O)N[C@@H](CCCCN)C(=O)N[C@@H](Cc1c[nH]c2ccccc12)C(=O)N[C@@H](CCCN=C(N)N)C(N)=O [FWRIRKWR] | 25.7 (≈ 32 µg/mL) |  |  | 
8 | CC[C@H](C)[C@H](N)C(=O)N[C@@H](CC(C)C)C(=O)NCC(=O)N[C@@H](CCCCN)C(=O)N[C@@H](CC(C)C)C(=O)N[C@@H](Cc1c[nH]c2ccccc12)C(=O)N[C@@H](CCC(=O)O)C(=O)NCC(=O)N[C@H](C(=O)N[C@@H](CCCCN)C(=O)N[C@@H](CO)C(=O)N[C@H](C(N)=O)[C@@H](C)CC)C(C)C [ILGKLWEGVKSI] |  |  | > 25 | MIC [3]: > 25 µM
9 | CC[C@H](C)[C@H](NC(=O)CN)C(=O)N[C@@H](CC(C)C)C(=O)N[C@@H](CO)C(=O)N[C@H](C(=O)N[C@H](C(=O)N[C@@H](CCCCN)C(=O)N[C@@H](CC(=O)O)C(=O)N[C@@H](Cc1ccccc1)C(=O)N[C@@H](C)C(=O)N[C@H](C(=O)N[C@@H](CCCCN)C(=O)N[C@@H](C)C(=O)NCC(=O)N[C@@H](CCCCN)C(=O)NCC(=O)N[C@@H](C)C(=O)N[C@@H](C)C(=O)N[C@@H](CCCCN)C(=O)NCC(=O)N[C@@H](CC(C)C)C(=O)N[C@@H](CC(C)C)C(=O)N[C@@H](CCC(=O)O)C(=O)N[C@@H](CCSC)C(=O)N[C@@H](C)C(=O)N[C@@H](CO)C(=O)N[C@H]1CSSC[C@@H](C(=O)O)NC(=O)[C@H](CCC(N)=O)NC(=O)CNC(=O)[C@H](CO)NC(=O)[C@H](CC(C)C)NC(=O)[C@H](CCCCN)NC1=O)[C@@H](C)CC)[C@@H](C)CC)[C@@H](C)O [GILSTIKDFAIKAGKGAAKGLLEMASCKLSGQC] | 3 (≈ 9.93 µg/mL) |  |  | 

Continued, in another order:

Row | MIC [1] [µM] | MIC (Escherichia coli) [µM] | MIC (Pseudomonas aeruginosa) [µM] | Compound | further results
10 |  | 2.8 (≈ 6.53 µg/mL) |  | CC[C@H](C)[C@H](NC(=O)[C@H](Cc1c[nH]c2ccccc12)NC(=O)[C@H](CCCCN)NC(=O)[C@@H]1CCCN1C(=O)[C@H](CC(C)C)NC(=O)[C@H](CCCCN)NC(=O)CNC(=O)[C@@H](NC(=O)[C@@H](NC(=O)[C@@H](N)CO)[C@@H](C)O)[C@@H](C)CC)C(=O)N[C@H](C(=O)N[C@@H](CCCCN)C(=O)N[C@H](C(=O)N[C@H](C(=O)N[C@@H](CC(N)=O)C(=O)N[C@@H](CCCCN)C(=O)N[C@@H](Cc1ccccc1)C(=O)N[C@H](C(=O)N[C@@H](CCCCN)C(=O)N[C@@H](CCCCN)C(=O)O)[C@@H](C)O)C(C)C)[C@@H](C)O)[C@@H](C)CC [STIGKLPKWIIKTVNKFTKK] | 
11 |  | 16.6 (≈ 32 µg/mL) | 33.3 (≈ 64 µg/mL) | CC[C@H](C)[C@H](NC(=O)[C@H](C)NC(=O)[C@H](CCCCN)NC(=O)CNC(=O)[C@@H](NC(=O)[C@H](CCCCN)NC(=O)[C@@H](NC(=O)[C@H](C)NC(=O)[C@H](CCCCN)NC(=O)CNC(=O)[C@H](Cc1c[nH]c2ccccc12)NC(=O)[C@H](CCCCN)NC(=O)[C@@H](NC(=O)[C@H](C)NC(=O)[C@H](CCCCN)NC(=O)CNC(=O)[C@@H](NC(=O)[C@@H](N)CCCCN)[C@@H](C)CC)[C@@H](C)CC)[C@@H](C)CC)[C@@H](C)CC)C(N)=O [KIGKAIKWGKAIKIGKAI] | MIC (Staphylococcus aureus): > 133 µM
12 | > 100 |  |  | CSCC[C@H](NC(=O)[C@H](CCCCN)NC(=O)[C@H](CCCCN)NC(=O)[C@H](CCCCN)NC(=O)[C@H](CCCN=C(N)N)NC(=O)[C@H](CCCN=C(N)N)NC(=O)[C@H](Cc1ccc(O)cc1)NC(=O)[C@@H](N)CCCN=C(N)N)C(=O)N[C@@H](CCCCN)C(=O)N[C@@H](CCCCN)C(N)=O [RYRRKKKMKK] | MIC [3]: > 100 µM
13 | 45.3 (≈ 80.8 µg/mL) |  |  | CC(C)C[C@H](NC(=O)[C@H](Cc1ccccc1)NC(=O)[C@@H]1CCCN1C(=O)[C@H](Cc1c[nH]c2ccccc12)NC(=O)[C@H](Cc1c[nH]c2ccccc12)NC(=O)[C@H](C)NC(=O)[C@@H]1CCCN1C(=O)[C@H](Cc1ccccc1)NC(=O)[C@H](CCCN=C(N)N)NC(=O)[C@H](CCCN=C(N)N)NC(=O)[C@@H](N)C(C)C)C(=O)N[C@@H](CCCN=C(N)N)C(=O)N[C@@H](CCCN=C(N)N)C(N)=O [VRRFPAWWPFLRR] | 
14 |  | 91.8 (≈ 125 µg/mL) |  | CC(C)C[C@H](NC(=O)[C@H](CC(C)C)NC(=O)[C@@H](N)CCCCN)C(=O)N[C@@H](CCCN=C(N)N)C(=O)N[C@@H](CCCCN)C(=O)N[C@@H](CCCCN)C(=O)N[C@@H](Cc1ccccc1)C(=O)N[C@@H](Cc1c[nH]c2ccccc12)C(=O)N[C@@H](Cc1c[nH]c2ccccc12)C(=O)NCC(N)=O [KLLRKKFWWG] | MIC [2]: 184 µM (≈ 250 µg/mL)
15 | 6 (≈ 9.14 µg/mL) |  |  | CC(C)C[C@H](NC(=O)[C@H](CCCCN)NC(=O)[C@H](CCCCN)NC(=O)[C@H](C)NC(=O)[C@H](CC(C)C)NC(=O)[C@H](CCCCN)NC(=O)[C@H](C)NC(=O)[C@H](CC(C)C)NC(=O)[C@H](CCCCN)NC(=O)[C@H](CCCCN)NC(=O)[C@H](C)NC(=O)[C@H](CC(C)C)NC(=O)[C@@H](N)CCCCN)C(=O)N[C@@H](C)C(N)=O [KLAKKLAKLAKKLA] | MIC [3]: 3 µM (≈ 4.57 µg/mL); MIC [2]: 6 µM (≈ 9.14 µg/mL)
16 |  |  | > 20.3 | CC[C@H](C)[C@H](NC(=O)[C@H](Cc1ccccc1)NC(=O)[C@H](CO)NC(=O)[C@H](CCCCN)NC(=O)[C@H](Cc1c[nH]c2ccccc12)NC(=O)[C@@H](N)CCCCN)C(=O)N[C@@H](CCCCN)C(=O)N[C@@H](CCCCN)C(=O)N[C@@H](CCCCN)C(=O)N[C@H](C(=O)N[C@@H](CO)C(=O)N[C@@H](CCCCN)C(=O)N[C@@H](Cc1ccccc1)C(=O)N[C@@H](CC(C)C)C(=O)N[C@@H](Cc1cnc[nH]1)C(=O)N[C@@H](CO)C(=O)N[C@@H](C)C(=O)N[C@@H](CCCCN)C(=O)N[C@@H](CCCCN)C(=O)N[C@@H](Cc1ccccc1)C(N)=O)[C@@H](C)O [KWKSFIKKKTSKFLHSAKKF] | 
